Key:
[1] = target: T1, Acetylcholinesterase human (AChE) (Homo sapiens, UniProt P22303); experiment: AChE inhibition kinetics, Ellman's method combined with capillary electrophoresis; assay type: biochemical; conditions: for type of AChE inhibition: from Lineweaver-Burk plots, Km and Vmax; for IC50: from activity (%) versus inhibitor concentration plots; for Tilt Angle of Lineweaver-Burk line: acetylthiocholine 0.36–46.00 mM, n = 6; for amount of 4,4-dithio-bis-acid nitrobenzoic (DBAN) product in the presence of inhibitor: 0.66 mM without inhibitors
T1 construct: purchased Sigma-Aldrich (Poznań, Poland)
Text: In this work, we used the combined Ellman’s method with the capillary electrophoresis method developed by us for the determination of 4,4-dithio-bis-acid nitrobenzoic (DBAN) (main enzyme reaction product) in the presence of acetylthiocholine (ACth), 5-thio-2-nitrobenzoic acid (NTB), 5,5′-dithio-bis-2-nitrobenzoic acid (DTNB), acetylcholinesterase (AChE) and inhibitors (I), (II), (III) and (IV) of acetylcholinesterase. For the development of this method, we optimized the buffer pH, separating background electrolyte (BGE) concentration, wavelength, temperature, and voltage. […] All these separation systems were tested to achieve the best separation parameters, resolution, and analysis time for all components in the reaction mixture. […] Separation was carried out at 15 kV. Each sample was added to the capillary under hydrodynamic injection.
The samples were injected under 5 psi pressure for 3 s. The experiments were performed under constant current conditions (85 μA). […] Before the assay, the capillary was conditioned with 0.1 M NaOH for 10 min at 10 psi and with H2O for 10 min at 10 psi. Then, it was electro conditioned with the running buffer for 20 min at +10 kV and pressure-conditioned with the running buffer for 10 min at 10 psi. Before each injection, the capillary was washed with 1 M NaOH for 2 min, then with H2O for 2 min, and finally with BGE for 2 min. At the end of each working day, the capillary was rinsed for 10 min with 0.1 M NaOH, 10 min with BGE, and 10 min with deionized water at 15 psi. Then, the capillary was exposed to air for 10 min at 20 psi and left empty.
Sample mixtures containing 4,4-dithio-bis-acid nitrobenzoic (DBAN) (main enzyme reaction product) in the presence of acetylthiocholine (ACth), 5-thio-2-nitrobenzoic acid (NTB), 5,5′-dithio-bis-2-nitrobenzoic acid (DTNB), acetylcholinesterase (AChE) and inhibitors (I), (II), (III) and (IV) were introduced automatically by pressure injection (with 2 psi pressure for 5 s on the sample solution). At the day’s end, vials with anode and cathode buffer were emptied and running buffer was filled again at the start of the next day before the analysis.
Acetylcholinesterase activity was determined according to the method by Ellman et al. and according to the procedure described by Rosilene R et al. but slightly modified. […] The tubes containing solutions were preincubated for 2 min at 25 °C. Then, 0.1 mL […] AChE was introduced into tubes 1–9, at an interval of 1 min. All 10 samples were incubated for 3 min at 25 °C. After incubation, the analytical samples were introduced into the capillary.
The inhibition constants (Ki) were calculated from the plotted Lineweaver–Burk curves for the four concentrations of the inhibitors (I), (II), (III) and (IV). The method was based on two steps (Figure 8).

AChE = conditions: model AChE inhibitors; read-out: IC50 (inhibition potency); cited from earlier work
[2] = inhibitor 0.08 mM, acetylthiocholine 0.36 mM
[3] = inhibitor 0.08 mM, acetylthiocholine 0.72 mM
[4] = inhibitor 0.08 mM, acetylthiocholine 1.44 mM
[5] = inhibitor 0.08 mM, acetylthiocholine 2.88 mM
[6] = inhibitor 0.08 mM, acetylthiocholine 5.75 mM
[7] = inhibitor 0.08 mM, acetylthiocholine 11.50 mM
[8] = inhibitor 0.08 mM, acetylthiocholine 23.00 mM
[9] = inhibitor 0.08 mM, acetylthiocholine 34.50 mM
[10] = inhibitor 0.08 mM, acetylthiocholine 46.00 mM

T1 sequence (P22303 32-614): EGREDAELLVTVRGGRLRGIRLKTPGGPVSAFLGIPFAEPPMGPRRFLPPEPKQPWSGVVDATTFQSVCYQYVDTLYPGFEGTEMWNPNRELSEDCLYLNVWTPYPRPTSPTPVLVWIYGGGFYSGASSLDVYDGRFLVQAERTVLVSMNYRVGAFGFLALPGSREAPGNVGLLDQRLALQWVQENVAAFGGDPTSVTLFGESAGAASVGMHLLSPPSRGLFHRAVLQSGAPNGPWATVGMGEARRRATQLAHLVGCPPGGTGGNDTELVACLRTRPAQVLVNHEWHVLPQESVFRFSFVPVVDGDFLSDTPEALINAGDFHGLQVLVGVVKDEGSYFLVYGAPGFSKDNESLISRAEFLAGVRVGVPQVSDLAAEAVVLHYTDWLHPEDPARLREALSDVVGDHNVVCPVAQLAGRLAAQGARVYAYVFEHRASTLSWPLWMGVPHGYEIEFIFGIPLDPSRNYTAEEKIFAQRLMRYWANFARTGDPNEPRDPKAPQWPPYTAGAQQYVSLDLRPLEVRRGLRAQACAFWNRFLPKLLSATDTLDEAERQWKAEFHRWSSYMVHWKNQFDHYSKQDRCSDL

Row | Structure (SMILES) | type of AChE inhibition [1] | IC50 [1] | Vmax ([1]; inhibitor 0.01 mM) | Tilt Angle of Lineweaver-Burk line ([1]; inhibitor 0.01 mM) | Vmax ([1]; inhibitor 0.02 mM) | Vmax ([1]; inhibitor 0.04 mM) | Tilt Angle of Lineweaver-Burk line ([1]; inhibitor 0.04 mM) | Vmax ([1]; inhibitor 0.06 mM) | Tilt Angle of Lineweaver-Burk line ([1]; inhibitor 0.06 mM) | Vmax ([1]; inhibitor 0.08 mM) | 1/Vo, mean [1, 2] | Peak area of product (4,4-dithio-bis-acid nitrobenzoic), mean [1, 2] | V0 (reaction speed), mean [1, 2] | 1/Vo, mean [1, 3] | Peak area of product (4,4-dithio-bis-acid nitrobenzoic), mean [1, 3] | V0 (reaction speed), mean [1, 3] | 1/Vo, mean [1, 4] | Peak area of product (4,4-dithio-bis-acid nitrobenzoic), mean [1, 4] | V0 (reaction speed), mean [1, 4] | amount of 4,4-dithio-bis-acid nitrobenzoic (DBAN) product in the presence of inhibitor [1, 4] | also measured
1 | CCC12C(=O)C(CC)(C(c3ccccc3)=C1c1ccccc1)C1C(=O)N(CC(O)CNC(C)C)C(=O)C12 (stereo not shown) [Compound (I)] | competitive | 37 ± 1 µM | 0.63 ± 0.02 mM/min | 59.52 ± 0.04 ° | 0.62 ± 0.03 mM/min | 0.64 ± 0.01 mM/min | 65.42 ± 0.05 ° | 0.65 ± 0.01 mM/min | 69.66 ± 0.05 ° | 0.65 ± 0.01 mM/min | 9.30 min/mM | 49766 | 0.11 mM/min | 5.46 min/mM | 91263 | 0.18 mM/min | 3.55 min/mM | 128810 | 0.28 mM/min | 0.52 mM | 1/Vo, mean [1, 5]: 2.30 min/mM; Peak area of product (4,4-dithio-bis-acid nitrobenzoic), mean [1, 5]: 171159; V0 (reaction speed), mean [1, 5]: 0.43 mM/min; 1/Vo, mean [1, 6]: 2.05 min/mM; Peak area of product (4,4-dithio-bis-acid nitrobenzoic), mean [1, 6]: 207149; V0 (reaction speed), mean [1, 6]: 0.49 mM/min; 1/Vo, mean [1, 7]: 1.80 min/mM; Peak area of product (4,4-dithio-bis-acid nitrobenzoic), mean [1, 7]: 231267; V0 (reaction speed), mean [1, 7]: 0.56 mM/min; 1/Vo, mean [1, 8]: 1.70 min/mM; Peak area of product (4,4-dithio-bis-acid nitrobenzoic), mean [1, 8]: 247792; V0 (reaction speed), mean [1, 8]: 0.59 mM/min; 1/Vo, mean [1, 9]: 1.55 min/mM; Peak area of product (4,4-dithio-bis-acid nitrobenzoic), mean [1, 9]: 250475; V0 (reaction speed), mean [1, 9]: 0.65 mM/min; 1/Vo, mean [1, 10]: 1.50 min/mM; Peak area of product (4,4-dithio-bis-acid nitrobenzoic), mean [1, 10]: 251643; V0 (reaction speed), mean [1, 10]: 0.67 mM/min; Tilt Angle of Lineweaver-Burk line ([1]; inhibitor 0.08 mM): 70.32 ± 0.03 °
2 | CCC12C(=O)C(CC)(C(c3ccccc3)=C1c1ccccc1)C1C(=O)N(CC(O)CN(C)C)C(=O)C12 (stereo not shown) [Compound (II)] | competitive | 39 ± 1 µM | 0.62 ± 0.03 mM/min | 59.46 ± 0.03 ° | 0.63 ± 0.02 mM/min | 0.65 ± 0.01 mM/min | 65.19 ± 0.06 ° | 0.65 ± 0.01 mM/min | 69.02 ± 0.05 ° | 0.65 ± 0.01 mM/min | 9.19 min/mM | 56086 | 0.11 mM/min | 5.40 min/mM | 102853 | 0.19 mM/min | 3.50 min/mM | 145167 | 0.29 mM/min | 0.58 mM | Tilt Angle of Lineweaver-Burk line ([1]; inhibitor 0.02 mM): 59.60 ± 0.08 °; 1/Vo, mean [1, 5]: 2.30 min/mM; Peak area of product (4,4-dithio-bis-acid nitrobenzoic), mean [1, 5]: 192894; V0 (reaction speed), mean [1, 5]: 0.43 mM/min; 1/Vo, mean [1, 6]: 2.05 min/mM; Peak area of product (4,4-dithio-bis-acid nitrobenzoic), mean [1, 6]: 233453; V0 (reaction speed), mean [1, 6]: 0.49 mM/min; 1/Vo, mean [1, 7]: 1.80 min/mM; Peak area of product (4,4-dithio-bis-acid nitrobenzoic), mean [1, 7]: 260635; V0 (reaction speed), mean [1, 7]: 0.56 mM/min; 1/Vo, mean [1, 8]: 1.70 min/mM; Peak area of product (4,4-dithio-bis-acid nitrobenzoic), mean [1, 8]: 279258; V0 (reaction speed), mean [1, 8]: 0.59 mM/min; 1/Vo, mean [1, 9]: 1.55 min/mM; Peak area of product (4,4-dithio-bis-acid nitrobenzoic), mean [1, 9]: 282281; V0 (reaction speed), mean [1, 9]: 0.65 mM/min; 1/Vo, mean [1, 10]: 1.50 min/mM; Peak area of product (4,4-dithio-bis-acid nitrobenzoic), mean [1, 10]: 283597; V0 (reaction speed), mean [1, 10]: 0.67 mM/min; Tilt Angle of Lineweaver-Burk line ([1]; inhibitor 0.08 mM): 70.02 ± 0.04 °
3 | CC(C)NCC(O)CN1C(=O)C2C(C1=O)C1(C)C(=O)C2(C)C(c2ccccc2)=C1c1ccccc1 (stereo not shown) [Compound (III)] | competitive | 33 ± 1 µM | 0.63 ± 0.01 mM/min | 60.01 ± 0.03 ° | 0.63 ± 0.02 mM/min | 0.64 ± 0.03 mM/min | 67.38 ± 0.04 ° | 0.64 ± 0.03 mM/min | 70.42 ± 0.02 ° | 0.63 ± 0.02 mM/min | 10.1 min/mM | 39497 | 0.10 mM/min | 5.70 min/mM | 72431 | 0.18 mM/min | 3.55 min/mM | 102230 | 0.28 mM/min | 0.41 mM | Tilt Angle of Lineweaver-Burk line ([1]; inhibitor 0.02 mM): 62.28 ± 0.03 °; 1/Vo, mean [1, 5]: 2.40 min/mM; Peak area of product (4,4-dithio-bis-acid nitrobenzoic), mean [1, 5]: 135840; V0 (reaction speed), mean [1, 5]: 0.42 mM/min; 1/Vo, mean [1, 6]: 2.05 min/mM; Peak area of product (4,4-dithio-bis-acid nitrobenzoic), mean [1, 6]: 164404; V0 (reaction speed), mean [1, 6]: 0.49 mM/min; 1/Vo, mean [1, 7]: 1.80 min/mM; Peak area of product (4,4-dithio-bis-acid nitrobenzoic), mean [1, 7]: 183545; V0 (reaction speed), mean [1, 7]: 0.56 mM/min; 1/Vo, mean [1, 8]: 1.70 min/mM; Peak area of product (4,4-dithio-bis-acid nitrobenzoic), mean [1, 8]: 196660; V0 (reaction speed), mean [1, 8]: 0.59 mM/min; 1/Vo, mean [1, 9]: 1.55 min/mM; Peak area of product (4,4-dithio-bis-acid nitrobenzoic), mean [1, 9]: 198790; V0 (reaction speed), mean [1, 9]: 0.65 mM/min; 1/Vo, mean [1, 10]: 1.50 min/mM; Peak area of product (4,4-dithio-bis-acid nitrobenzoic), mean [1, 10]: 199716; V0 (reaction speed), mean [1, 10]: 0.64 mM/min; Tilt Angle of Lineweaver-Burk line ([1]; inhibitor 0.08 mM): 71.50 ± 0.03 °
4 | CN(C)CC(O)CN1C(=O)C2C(C1=O)C1(C)C(=O)C2(C)C(c2ccccc2)=C1c1ccccc1 (stereo not shown) [Compound (IV)] | competitive | 35 ± 1 µM | 0.63 ± 0.02 mM/min | 59.58 ± 0.04 ° | 0.63 ± 0.02 mM/min | 0.64 ± 0.03 mM/min | 65.58 ± 0.03 ° | 0.63 ± 0.01 mM/min | 69.76 ± 0.03 ° | 0.64 ± 0.03 mM/min | 9.85 min/mM | 45817 | 0.10 mM/min | 5.40 min/mM | 84020 | 0.19 mM/min | 3.50 min/mM | 118587 | 0.29 mM/min | 0.48 mM | Tilt Angle of Lineweaver-Burk line ([1]; inhibitor 0.02 mM): 60.09 ± 0.04 °; 1/Vo, mean [1, 5]: 2.30 min/mM; Peak area of product (4,4-dithio-bis-acid nitrobenzoic), mean [1, 5]: 157575; V0 (reaction speed), mean [1, 5]: 0.43 mM/min; 1/Vo, mean [1, 6]: 2.05 min/mM; Peak area of product (4,4-dithio-bis-acid nitrobenzoic), mean [1, 6]: 190708; V0 (reaction speed), mean [1, 6]: 0.49 mM/min; 1/Vo, mean [1, 7]: 1.80 min/mM; Peak area of product (4,4-dithio-bis-acid nitrobenzoic), mean [1, 7]: 212913; V0 (reaction speed), mean [1, 7]: 0.56 mM/min; 1/Vo, mean [1, 8]: 1.70 min/mM; Peak area of product (4,4-dithio-bis-acid nitrobenzoic), mean [1, 8]: 228126; V0 (reaction speed), mean [1, 8]: 0.59 mM/min; 1/Vo, mean [1, 9]: 1.55 min/mM; Peak area of product (4,4-dithio-bis-acid nitrobenzoic), mean [1, 9]: 230596; V0 (reaction speed), mean [1, 9]: 0.65 mM/min; 1/Vo, mean [1, 10]: 1.50 min/mM; Peak area of product (4,4-dithio-bis-acid nitrobenzoic), mean [1, 10]: 231671; V0 (reaction speed), mean [1, 10]: 0.65 mM/min; Tilt Angle of Lineweaver-Burk line ([1]; inhibitor 0.08 mM): 70.40 ± 0.03 °
